Among the test systems are CCRF-CEM leukemia; A498 renal; OVCAR-3 ovarian; SK-OV-3 ovarian; SR leukemia; HOP-62 NSCLC; HOP-92 NSCLC; NCI-H23 lung; HCT-116 colon; MOLT-4 leukemia.
What all share (assay): NCI anticancer screen, dose series, 48 h

Several values for one entry are separate records, joined by “and”; a condition that tells them apart may be missing. Equal entries are not always repeated.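 Following 48 hours of exposure in 96-well plates, responses at five concentrations were used to interpolate endpoints linearly. Here, GI50 denotes the concentration required for 50% inhibition of growth. Definition used: TGI = concentration required for complete inhibition of growth.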

With `COC(=O)C(Cc1ccccc1)NC(=O)NC(=O)NC(=O)CI` (centres undefined), the GI50 in the test with CCRF-CEM leukemia was 1.14 µM; in the test on A498 renal it was 18.4 µM; with OVCAR-3 ovarian, 2.97 µM; with SK-OV-3 ovarian, 15.8 µM; in the test on SR leukemia, 1200 nM; in the test with HOP-62 NSCLC, 18 µM. The GI50 was 2510 nM in the test with HOP-92 NSCLC, 6.79 µM in the test with NCI-H23 lung, 3.27 µM with HCT-116 colon and 2 µM in the test with MOLT-4 leukemia. In addition, the TGI in the test with CCRF-CEM leukemia was 3.81 µM; with A498 renal, 33.2 µM; with OVCAR-3 ovarian, 8.89 µM; in the test with SK-OV-3 ovarian it was 29.4 µM; with SR leukemia it was 3.67 µM; in the test on HOP-62 NSCLC, 33.7 µM. In addition, the TGI was found to be 5.51 µM in the test on HOP-92 NSCLC, 28.2 µM with NCI-H23 lung, 11.1 µM with HCT-116 colon and 5.21 µM with MOLT-4 leukemia.

In the case of `CC(=O)NC1=C(OS(=O)(=O)c2ccc(C)cc2)CN(C)C1=O`, the TGI was 4.28 µM in the test on CCRF-CEM leukemia; 18 µM with A498 renal; 8.14 µM in the test on OVCAR-3 ovarian; 21 µM with SK-OV-3 ovarian; greater than 100 µM in the test on SR leukemia; 11.9 µM in the test with HOP-62 NSCLC. Besides, the TGI in the test on HOP-92 NSCLC was found to be 8.49 µM; in the test on NCI-H23 lung it was 15.3 µM; in the test on HCT-116 colon, 12 µM; in the test with MOLT-4 leukemia, 17.9 µM.

`COc1cccc(NC(=O)c2sc3nc4c(cc3c2N)CN(Cc2ccccc2)CC4)c1`: the GI50 in the test on CCRF-CEM leukemia was 29.5 µM; with A498 renal, 3.82 µM; with OVCAR-3 ovarian, 7.53 µM; in the test with SK-OV-3 ovarian, 2.78 µM; in the test with SR leukemia it was 453 nM; in the test with HOP-62 NSCLC, 1.83 µM. For the same compound, the GI50 in the test on HOP-92 NSCLC is 2210 nM; in the test with NCI-H23 lung it was 7.18 µM; in the test with HCT-116 colon, 1.74 µM; with MOLT-4 leukemia it was 21.9 µM. In addition, the TGI is greater than 100 µM in the test with CCRF-CEM leukemia; 24.4 µM in the test with A498 renal; 26.9 µM in the test with OVCAR-3 ovarian; 14 µM in the test on SK-OV-3 ovarian; 47.7 µM in the test on SR leukemia; 6.47 µM with HOP-62 NSCLC. The TGI in the test on HOP-92 NSCLC is 24.1 µM; in the test on NCI-H23 lung, 49.2 µM; in the test with HCT-116 colon it was greater than 100 µM; in the test with MOLT-4 leukemia, greater than 100 µM.

In the case of `c1ccc(SC(CCCCC(Sc2ccccc2)Sc2ccccc2)Sc2ccccc2)cc1`, the TGI with CCRF-CEM leukemia, in the test with A498 renal, in the test on OVCAR-3 ovarian, in the test on SK-OV-3 ovarian, with SR leukemia and in the test on HOP-62 NSCLC was greater than 100 µM throughout. Also, the TGI in the test with HOP-92 NSCLC, with NCI-H23 lung, in the test with HCT-116 colon and in the test on MOLT-4 leukemia was greater than 100 µM throughout.

In the case of `COC(=O)Cn1c2c(c3c(O)cccc31)C(=O)c1ccccc1-2`, the GI50 in the test with CCRF-CEM leukemia is greater than 100 µM; in the test with A498 renal, greater than 100 µM; with OVCAR-3 ovarian, greater than 100 µM; in the test with SK-OV-3 ovarian, greater than 100 µM; in the test on SR leukemia it was 28800 nM; in the test with HOP-62 NSCLC it was greater than 100 µM. Also, the GI50 was 27000 nM in the test on HOP-92 NSCLC, greater than 100 µM with NCI-H23 lung, greater than 100 µM in the test on HCT-116 colon and greater than 100 µM in the test with MOLT-4 leukemia. In addition, the TGI in the test on CCRF-CEM leukemia, in the test with A498 renal, in the test with OVCAR-3 ovarian, in the test with SK-OV-3 ovarian, in the test on SR leukemia and with HOP-62 NSCLC was greater than 100 µM each time. The TGI with HOP-92 NSCLC, in the test with NCI-H23 lung, in the test with HCT-116 colon and in the test on MOLT-4 leukemia was greater than 100 µM throughout.

Turning to `Cn1cnc2nc(Cl)nc(NC(C)(C)C(C)(C)O)c21`, the TGI in the test on CCRF-CEM leukemia, in the test on A498 renal, in the test on OVCAR-3 ovarian, with SK-OV-3 ovarian, in the test with SR leukemia and in the test with HOP-62 NSCLC was greater than 100 µM in each case. Also, the TGI in the test on HOP-92 NSCLC, with NCI-H23 lung, in the test on HCT-116 colon and in the test with MOLT-4 leukemia was greater than 100 µM throughout.

For `CN(C)CCCN1c2ccccc2CCc2ccc(Cl)cc21`, the GI50 with CCRF-CEM leukemia is 3.07 µM; with A498 renal it was 5.47 µM; in the test on OVCAR-3 ovarian, 9.17 µM; in the test with SK-OV-3 ovarian, 4.49 µM; in the test with SR leukemia, 2080 nM; in the test with HOP-62 NSCLC it was 10.8 µM. The GI50 is 1440 nM in the test on HOP-92 NSCLC, 7.51 µM in the test with NCI-H23 lung, 3.53 µM in the test on HCT-116 colon and 3.07 µM in the test with MOLT-4 leukemia. In addition, the TGI came to 12 µM with CCRF-CEM leukemia; 19.4 µM in the test on A498 renal; 23.1 µM with OVCAR-3 ovarian; 15.4 µM in the test with SK-OV-3 ovarian; 5.11 µM in the test with SR leukemia; 23.3 µM in the test on HOP-62 NSCLC. Further, the TGI with HOP-92 NSCLC came to 6.8 µM; in the test on NCI-H23 lung, 21.9 µM; with HCT-116 colon, 12.3 µM; in the test with MOLT-4 leukemia, 11.1 µM.

With `C[C@]12CCC3[C@@H](CC[C@@H]4c5nonc5CC[C@]34C)C1CCC(=O)N2` (some centres undefined), the TGI with CCRF-CEM leukemia, in the test on A498 renal, with OVCAR-3 ovarian, in the test with SK-OV-3 ovarian, with SR leukemia and in the test with HOP-62 NSCLC was greater than 100 µM in each case. Besides, the TGI in the test with HOP-92 NSCLC is greater than 95.1 µM; with NCI-H23 lung, greater than 100 µM; in the test on HCT-116 colon, greater than 100 µM; in the test with MOLT-4 leukemia, greater than 100 µM. In addition, the GI50 was greater than 88.8 µM in the test with A498 renal, greater than 100000 nM in the test with SR leukemia, 40400 nM in the test with HOP-92 NSCLC and greater than 59.7 µM in the test with MOLT-4 leukemia.

As for `CN(C)c1ccc2c(c1)Sc1cc(N(C)C)ccc1N2C(=O)c1ccccc1`, the GI50 is greater than 100 µM in the test on CCRF-CEM leukemia; 32.3 µM with A498 renal; 25.7 µM in the test with OVCAR-3 ovarian; 54.8 µM in the test on SK-OV-3 ovarian; 14600 nM in the test with SR leukemia; 92.4 µM in the test on HOP-62 NSCLC. Besides, the GI50 with HOP-92 NSCLC was 5040 nM; in the test with NCI-H23 lung it was 27.7 µM; with HCT-116 colon, 25 µM; in the test on MOLT-4 leukemia, 38.1 µM. In addition, the TGI in the test with CCRF-CEM leukemia, with A498 renal, with OVCAR-3 ovarian, with SK-OV-3 ovarian, in the test with SR leukemia and with HOP-62 NSCLC was greater than 100 µM throughout. For the same compound, the TGI is 89.9 µM in the test on HOP-92 NSCLC, greater than 100 µM in the test with NCI-H23 lung, greater than 100 µM in the test with HCT-116 colon and greater than 100 µM in the test on MOLT-4 leukemia.

On to `Cc1ccc(C(=O)Nc2cccc(C(F)(F)F)c2)cc1Nc1nc(-c2cccnc2)nc2c1cnn2C`, for which the GI50 in the test with CCRF-CEM leukemia is 3.02 µM and 2.44 µM; in the test with A498 renal, 1.6 µM; in the test on OVCAR-3 ovarian, 3.86 µM and 2.53 µM; in the test with SK-OV-3 ovarian, 4.48 µM and 3.79 µM; in the test with SR leukemia, 822 nM; in the test with HOP-62 NSCLC, 2.62 µM and 1.04 µM. The GI50 was 1310 nM and 534 nM with HOP-92 NSCLC; 1.81 µM and 1.3 µM in the test on NCI-H23 lung; 0.917 µM and 0.377 µM with HCT-116 colon; 1.78 µM and 0.886 µM with MOLT-4 leukemia. For the same compound, the TGI was greater than 100 µM in the test with CCRF-CEM leukemia; 5.01 µM in the test with A498 renal; 17.4 µM and 7.27 µM in the test on OVCAR-3 ovarian; 22.2 µM and > 10 µM in the test on SK-OV-3 ovarian; 6.58 µM with SR leukemia; 15.2 µM and > 10 µM with HOP-62 NSCLC. Further, the TGI in the test with HOP-92 NSCLC was 5.13 µM and 5.01 µM; with NCI-H23 lung, 12.8 µM and 9.54 µM; with HCT-116 colon it was 2.87 µM and 3.67 µM; with MOLT-4 leukemia, 11 µM and > 10 µM.

As to `CSCC1CC(c2ccc(Cl)cc2)=NO1` (centres undefined), the TGI in the test with CCRF-CEM leukemia, with A498 renal, in the test with OVCAR-3 ovarian, with SK-OV-3 ovarian, with SR leukemia and in the test on HOP-62 NSCLC was greater than 100 µM each time. The TGI with HOP-92 NSCLC, with NCI-H23 lung, in the test with HCT-116 colon and in the test with MOLT-4 leukemia was greater than 100 µM in each case.

Take `Cc1cc2c(C)n(Cc3ccc(Cl)cc3Cl)nc2c(C#N)c1C`: the TGI in the test on CCRF-CEM leukemia is greater than 100 µM; in the test on A498 renal it was greater than 100 µM; in the test on OVCAR-3 ovarian, greater than 100 µM; with SK-OV-3 ovarian, 47.4 µM; with SR leukemia, greater than 100 µM; with HOP-62 NSCLC it was 49.7 µM. The TGI was 36.9 µM in the test with HOP-92 NSCLC, greater than 100 µM in the test with NCI-H23 lung, greater than 100 µM in the test on HCT-116 colon and greater than 100 µM in the test with MOLT-4 leukemia.

As for `c1ccc2c(C3NCCc4[nH]cnc43)cccc2c1` (centres undefined), the TGI in the test with CCRF-CEM leukemia, in the test with A498 renal, with OVCAR-3 ovarian, in the test with SK-OV-3 ovarian, in the test on SR leukemia and with HOP-62 NSCLC was greater than 100 µM throughout. Besides, the TGI with HOP-92 NSCLC, in the test on NCI-H23 lung, in the test on HCT-116 colon and in the test on MOLT-4 leukemia was greater than 100 µM in each case.

Regarding `CCCCCCc1cc(C(=O)Nc2cccc(C(F)(F)F)c2)nc(N)n1`, the TGI with CCRF-CEM leukemia, in the test with A498 renal, in the test with OVCAR-3 ovarian, in the test on SK-OV-3 ovarian, in the test with SR leukemia and in the test on HOP-62 NSCLC was greater than 100 µM throughout. For the same compound, the TGI in the test on HOP-92 NSCLC, in the test with NCI-H23 lung, in the test with HCT-116 colon and in the test with MOLT-4 leukemia was greater than 100 µM each time.

For the compound `O=C1C(=O)N(c2ccc(Cl)c(Cl)c2)C(=O)C(=O)C1c1nc2ccccc2s1`, the TGI in the test on CCRF-CEM leukemia, in the test on A498 renal, in the test with OVCAR-3 ovarian, in the test on SK-OV-3 ovarian, with SR leukemia and in the test on HOP-62 NSCLC was greater than 100 µM in each case. The TGI in the test on HOP-92 NSCLC, in the test on NCI-H23 lung, in the test with HCT-116 colon and in the test on MOLT-4 leukemia was greater than 100 µM throughout.

Source of the values: PubChem BioAssay (NCI).
